The subject of one data set is PANC-1. The experiment in a line: PDAC cell viability after 72 h of treatment, PANC-1. The data set is classed as cell-based. Here is the method:
(§1) All ortho-quinone prodrug derivatives were tested on two pancreatic cancer cell lines, PANC-1 and AsPC-1, to assess efficacy in cell killing (Figures , S88–89, S91, Tables , and S8.1). Exogenous β-glucuronidase was added to the cell media to mimic the extracellular enzyme present in the TME. […] Those derivatives with release rates slower than that of 16a, like 16e, had less efficacy in cells comparatively (Table ).
(§2) 7 PDAC cell viability with prodrug treatment. Representative PANC-1 (a) and AsPC-1 (b) cell viability data of four β-lapachone prodrug derivatives after 72 h of treatment with exogenous β-glucuronidase added. Panels (c, d) show the toxicity of functional prodrugs up to 100 μM in PANC-1 (c) and AsPC-1 (d) cells without exogenous β-glucuronidase enzyme present after 72 h incubation.
(§3) To assess the TW of the prodrug derivatives, we tested each of them in both the PANC-1 and AsPC-1 cell lines at up to 100 μM without the β-glucuronidase enzyme present. In agreement with the HPLC stability assay data, we saw no toxicity in all stable prodrug derivatives up to this concentration (Figure c,d). […] In comparison, all the stable glucuronide prodrug derivatives retained 100% viability at 100 μM. […] It is generally considered that a drug has a good therapeutic safety profile if the TI is greater than 10, which our best derivatives far exceed, signaling that our prodrug is safe to deliver systemically in future in vivo experiments and should not cause any adverse effects in areas where β-glucuronidase is not overexpressed. ,

Data set [1] in a line: HPLC stability assay of prodrugs in buffers pH 3, 5, 7, 7.4 (PBS), 9 at 37 °C for 72 h without trigger. The data set is classed as physicochemical. The note with it: for stability of the prodrug without triggering enzyme: 37 °C, 72 h, pH 3–9; for premature lapachone release, percent of total prodrug: 72 h at 37 °C, no H2O2. Here is the method: The diastereomeric mixture of each β-glucuronide–PHB-β-lapachone prodrug (16a–j) and PAB derivative 22 were then tested for stability in citrate-phosphate buffers across a range of pHs (3, 5, 7, 7.4 (PBS), 9) via an HPLC stability assay. For derivatives 16a, 16b, 16d, 16e, 16h, and 16j, when no β-glucuronidase enzyme was added, both diastereomers of 16 were fully stable at 37 °C for 72 h (Figures a,d, S63, S64, S66–68, S71, and S73). […] This premature release was greatest at acidic pH 3 for 16g, with very minimal lapachone release detected at pH 5–9 (Figure c). The released lapachone was quantified and compared to the starting concentration of each prodrug to calculate the percent of the prodrug that had been prematurely released (Figures f,g, S76). […] Therefore, a trade-off exists between ring activation, improving the release rate from 3 while also decreasing prodrug stability, and it rendered 16g clinically disadvantageous.  5 Stability of prodrugs is pH dependent. The representative HPLC traces for (a) a stable prodrug 16a and (b) an unstable prodrug 16g are shown after incubation at 37 °C in pH 7.4 PBS buffer. […] (c) The area of the lapachone peak for 16g normalized to the IS was plotted, displaying substantial growth over time at pH 3. […] For panels c–g, each value is plotted as the mean ± SD of three replicates. The HPLC traces (Figures S50–S62) and peak area graphs (Figures S63–S75) for all other derivatives can be found in the Supporting Information. The stability of 26 was also evaluated from pH 3–9 (Figures d,f–h S86–S87). […] This degradation was the largest at pH 9, with a measurable decrease in the prodrug peak area after 72 h (Figure g). The lapachone released after 72 h was quantified using a standard curve (Tables S6.1–S6.2). At pH 3 and 5, approximately 0.2% of the total prodrug lapachone had been released.

Another data set concerns AsPC-1. As to the kind of experiment: PDAC cell viability after 72 h of treatment, AsPC-1. It counts as cell-based. The note with it: for IC50: Homo sapiens. The method, then: as §1, §2, §3
Data set [2] is described as follows: Release of β-lapachone (1) from deprotected PHB/PAB linkers (3 or 25) in citrate-phosphate buffers pH 3–10, analytical HPLC. The data set is classed as physicochemical. The note with it: compared with unsubstituted 3a. Here is the method:
First, the purified mixture of two prodrug diastereomers (16a–j) for each PHB derivative was incubated with β-glucuronidase. This enabled full removal of the glucuronide moiety from both diastereomers of the prodrug within 2–15 min, leaving a mixture of two PHB-β-lapachone enantiomers (3a–j, Figure c). For PAB compound 22, penicillin G amidase was used in place of β-glucuronidase to give a mixture of two PAB-β-lapachone enantiomers (25). The 3 (or 25) solution was then spiked into citrate-phosphate buffers from pH 3–10, and release of 1 from 3 (or 25) was measured at various time points by analytical HPLC. A single peak for the two enantiomers of 3 was observed after glucuronide removal, and thus the measured k obs was for both enantiomers in the mixture.
3 Release rate comparison for PHB and PAB prodrugs. The mechanisms of release for the β-glucuronide–PHB prodrug derivatives (a) and the PAB derivative (b) are shown. β-glucuronidase or penicillin G amidase deprotects the PHB or PAB linkers, yielding 3 or 25, respectively. A 1,6-elimination then occurs, releasing the hydroquinone form of β-lapachone, which then oxidizes into the ortho-quinone. (c) The substituents on the PHB/PAB linker for each derivative are shown and classified into which strategy they employed, lowering phenolate pK a or stabilizing the elimination TS. BLap = β-lapachone in its α-hydroxy ketol form (refer to panel a). The predicted pK a values are also shown, calculated using MolGpKa. (d) The representative HPLC traces of a release experiment for 3g at pH 7 are shown (RT: retention time) normalized to the warfarin (WF) internal standard (IS, RT = 11.6 min). The peak for 3g (RT = 12.5 min) decreases while the peak for 1 (RT = 10.8 min) increases over time. The traces for all other derivatives at each pH are included in Figures S10–S20, S34–S45. (e) The calculated k obs values from these release kinetic experiments for each PHB derivative are plotted versus pH on a logarithmic scale. Derivatives 3a–e were designed to lower the PHB phenol pK a, while derivatives 3f–j were designed to stabilize the 1,6-elimination TS. (f) The first-order reaction rate constants of the PAB derivatives 4 (pink) and 25 (purple) are plotted together with 3a (black) and the best-performing PHB derivatives 3f (cyan) and 3i (dark green) for direct comparison. The derivations of the plotted first-order k obs values from linearized initial velocities measured in triplicate are shown in Figures S23–S33. […]
Over time, the intensity of the 3/25 peak decreased, while the intensity of the 1 peak increased (Figure d). A standard curve for β-lapachone (Figure S22) was prepared, enabling quantification of the released β-lapachone.

[3] abbreviates: Homo sapiens, PANC-1, exogenous β-glucuronidase added, average ± SD of biological replicates, read-out: PANC-1 IC50.
Setting [4] is: Homo sapiens, PANC-1, exogenous β-glucuronidase added, representative experiment, read-out: IC50 on PANC-1, representative viability data (Figure 7a).
The mark [5] stands for this setting: ASPC1, exogenous β-glucuronidase added, average ± SD of biological replicates, read-out: AsPC-1 IC50.
Setting [6] is: ASPC1, exogenous β-glucuronidase added, representative experiment, read-out: IC50 on AsPC-1, representative viability data (Figure 7b).
[7] abbreviates: exogenous β-glucuronidase added, average ± SD of biological replicates.

The source of these data is paper PMC12766730, “Controlled Self-Immolative Release of β‑Lapachone via an Optimized para-Hydroxybenzyl Linker for Targeted Pancreatic Cancer Therapy” (Journal of the American Chemical Society, 2025).

The structures appear in SMILES notation. Read-outs that look alike come from different tables or passages of the source.

For `CC1(C)CCC2=C(O1)c1ccccc1C(O)(Cc1ccccc1)C2=O` (stereo not drawn) [compound 27, reference compound], the IC50 – broadly, the concentration that gives 50% inhibition – stood at 70 µM with PANC-1 (exogenous β-glucuronidase added, average ± SD of biological replicates, read-out: PANC-1 IC50) and 70 µM in the data set with PANC-1 (no release-triggering enzyme, tested up to 100 μM, read-out: IC50 in PANC-1 without exogenous β-glucuronidase).

With `CCCN(C)S(=O)(=O)c1cc(CC2(O)C(=O)C3=C(OC(C)(C)CC3)c3ccccc32)ccc1O[C@@H]1O[C@H](C(=O)O)[C@@H](O)[C@H](O)[C@H]1O` (single isomer, unassigned) [16e], the “stability of the prodrug without triggering enzyme” value in data set [1] is reported as “fully stable”.

Consider `CC(c1ccc(O[C@@H]2O[C@H](C(=O)O)[C@@H](O)[C@H](O)[C@H]2O)cc1)C1(O)C(=O)C2=C(OC(C)(C)CC2)c2ccccc21` (stereo partly drawn) [16i], for which the “stability of the prodrug without triggering enzyme” value in data set [1] is “trace β-lapachone release was detected”. Besides, the IC50 was determined as 0.8 ± 0.5 µM in the data set on PANC-1 (setting [3]), 0.3 µM in the data set with PANC-1 (setting [4]), 0.9 ± 0.5 µM with AsPC-1 (setting [5]) and 0.5 µM in the data set on AsPC-1 (setting [6]).

Turning to `COc1cc(O)cc(OC)c1CC1(O)C(=O)C2=C(OC(C)(C)CC2)c2ccccc21` (stereo not drawn) [3g], in data set [2] (pH 5), the “acceleration of release rate at pH 5” value is approximately 2200 fold. For the same compound, the “acceleration of release rate at pH 7.5” value in data set [2] (pH 7.5) is approximately 800 fold.

As for `COCCOc1cc(O[C@@H]2O[C@H](C(=O)O)[C@@H](O)[C@H](O)[C@H]2O)ccc1CC1(O)C(=O)C2=C(OC(C)(C)CC2)c2ccccc21` (stereo partly drawn) [16j], in data set [1], the “stability of the prodrug without triggering enzyme” value was “fully stable”. For the same compound, the IC50 stood at 1.1 ± 0.4 µM with PANC-1 (setting [3]) and 2.8 ± 1 µM in the data set with AsPC-1 (setting [5]).

As to `CC1(C)CCC2=C(O1)c1ccccc1C(O)(Cc1c(F)c(F)c(O[C@@H]3O[C@H](C(=O)O)[C@@H](O)[C@H](O)[C@H]3O)c(F)c1F)C2=O` (stereo partly drawn) [16c], in data set [1], the “stability of the prodrug without triggering enzyme” value is on record as “trace β-lapachone release was detected”. The “PANC-1 IC50” value in the data set with PANC-1 (setting [7]) is listed as “Inactive”. Moreover, the “AsPC-1 IC50” value in the data set with AsPC-1 (setting [7]) is given as “Inactive”.

Regarding `COc1cc(NC(=O)Cc2ccccc2)ccc1CC1(O)C(=O)C2=C(OC(C)(C)CC2)c2ccccc21` (stereo not drawn) [compound 22], the “stability of the prodrug without triggering enzyme” value in data set [1] is “trace β-lapachone release was detected”.

Regarding `CC1(C)CCC2=C(O1)c1ccccc1C(O)(Cc1ccc(O[C@@H]3O[C@H](C(=O)O)[C@@H](O)[C@H](O)[C@H]3O)cc1)C2=O` (stereo partly drawn) [16a], the “stability of the prodrug without triggering enzyme” value in data set [1] is recorded as “fully stable”. The IC50 in the data set on PANC-1 (setting [3]) was 9.6 ± 0.9 µM; with PANC-1 (setting [4]), 11 µM; in the data set on AsPC-1 (setting [5]), 19 ± 3 µM; in the data set on AsPC-1 (setting [6]), 16 µM.

For the compound `COc1cc(CC2(O)C(=O)C3=C(OC(C)(C)CC3)c3ccccc32)cc(OC)c1O[C@@H]1O[C@H](C(=O)O)[C@@H](O)[C@H](O)[C@H]1O` (stereo partly drawn) [16h], in data set [1], the “stability of the prodrug without triggering enzyme” value is listed as “fully stable”. Further, the IC50 in the data set on PANC-1 (setting [3]) stood at 1.2 ± 0.4 µM; in the data set on AsPC-1 (setting [5]), 3.2 ± 1.7 µM.

As for `CC1(C)CCC2=C(O1)c1ccccc1C(=O)C2=O` [compound 1, β-lapachone, reference compound], the IC50 in the data set on PANC-1 (setting [3]) was 1.8 ± 0.2 µM; in the data set on AsPC-1 (setting [5]), 5.4 ± 0.7 µM; in the data set with AsPC-1 (setting [6]) it was 4.7 µM.

For the compound `CC1(C)CCC2=C(O1)c1ccccc1C(O)(Cc1ccc(B(O)O)cc1)C2=O` (stereo not drawn) [compound 26, reference compound], the “premature lapachone release, percent of total prodrug” value in data set [1] (pH 3) is given as “approximately 0.2%”; in data set [1] (pH 5), “approximately 0.2%”; in data set [1] (pH 7), approximately 0.6%; in data set [1] (pH 7.4), approximately 2.3%; in data set [1] (pH 9) it was approximately 10.9%.

Turning to `CC1(C)CCC2=C(O1)c1ccccc1C(O)(Cc1c(F)cc(O[C@@H]3O[C@H](C(=O)O)[C@@H](O)[C@H](O)[C@H]3O)cc1F)C2=O` (stereo partly drawn) [16d], in data set [1], the “stability of the prodrug without triggering enzyme” value is “fully stable”. Moreover, in the data set on PANC-1 (setting [3]), the IC50 was 21 ± 3 µM.

Consider `COc1cc(O[C@@H]2O[C@H](C(=O)O)[C@@H](O)[C@H](O)[C@H]2O)cc(OC)c1CC1(O)C(=O)C2=C(OC(C)(C)CC2)c2ccccc21` (mixture of isomers) [16g], for which the “stability of the prodrug without triggering enzyme” value in data set [1] is reported as “trace β-lapachone release was detected”. The IC50 worked out at 1.2 ± 0.3 µM in the data set on PANC-1 (setting [3]); 20 µM in the data set with PANC-1 (Homo sapiens, PANC-1, no enzyme, value printed in the picture, read-out: IC50, prodrug toxicity without β-glucuronidase on PANC-1 (Figure 7c)); 26 ± 6 µM in the data set on PANC-1 (Homo sapiens, PANC-1, no release-triggering enzyme, tested up to 100 μM, read-out: IC50 in PANC-1 without exogenous β-glucuronidase); 1.6 ± 0.6 µM in the data set with AsPC-1 (setting [5]); 68 µM in the data set with AsPC-1 (ASPC1, no enzyme, value printed in the picture, read-out: IC50, prodrug toxicity without β-glucuronidase on AsPC-1 (Figure 7d)); 75 ± 7 µM in the data set with AsPC-1 (ASPC1, no release-triggering enzyme, tested up to 100 μM, read-out: IC50 in AsPC-1 without exogenous β-glucuronidase).

For `CC1(C)CCC2=C(O1)c1ccccc1C(O)(Cc1cc(F)c(O[C@@H]3O[C@H](C(=O)O)[C@@H](O)[C@H](O)[C@H]3O)c(F)c1)C2=O` (stereo partly drawn) [16b], the “stability of the prodrug without triggering enzyme” value in data set [1] is listed as “fully stable”. Moreover, the IC50 worked out at 11 ± 2 µM in the data set with PANC-1 (setting [3]) and 24 µM with AsPC-1 (setting [5]).
